Article PMC12195982, “Design, Synthesis, and In Vitro Evaluation of 4-(Arylchalcogenyl)methyl)-1H-1,2,3-triazol-1-yl-menadione: Exploring Their Potential Against Tuberculosis” (Pharmaceuticals, 2025)
Converted amounts (≈) assume the structure as drawn. Like-named read-outs stand apart in the source and are kept apart here.

Key:
[1] = test system: Mtb strain H37Rv ATCC 27294; test: Microplate Alamar Blue Assay (MABA), susceptible strain; type: cell-based; conditions: Mycobacterium tuberculosis
VERO cell line = type: cell-based; conditions: for cytotoxicity: MTT method, VERO cell line
Protocol: First, a VERO cell line suspension was prepared and distributed into each of the 96 wells of the culture plate, which was then incubated for 48 h to allow the cells to adhere. After this period, the suspension medium was discarded, and the cells were exposed to the substances under study, leaving them in the wells for a period of between 24 and 48 h. After this, the substance was discarded, and the cells were washed with a buffer, with MTT being added, followed by a 3 h incubation. After this period, the MTT was discarded, and Dimethyl sulfoxide (DMSO) was added to solubilize the formazan crystals generated. Finally, the absorbance of each well of the plate was obtained using a microplate spectrophotometer. The absorbance was quantified based on the readings that the equipment makes, based on the different intensities of the purple color in the wells of the plate; the more purple the well, the more viable cells there are.

Mtb = conditions: cited from earlier work
protein kinase B (PknB) = conditions: cited from earlier work
[2] = Mtb H37Rv, strain sensitive to all first- and second-line drugs, MABA, triplicate, read-out: MIC
[3] = as quoted in sections 2.2 and 2.3, strain not stated, read-out: MIC (antimycobacterial activity)

Compound	MIC [1, 2] [µg/mL]	further results
NC(=O)c1cnccn1 [PZA, pyrazinamide, reference compound]	100 (≈ 813 µM)	–
CC1=C(Cn2cc(CSc3ccc(C)cc3)nn2)C(=O)c2ccccc2C1=O [Compound 10c, 2-methyl-3-((4-((p-methylphenylthiol)methyl)-1H-1,2,3-triazolyl)methyl)naphthalene-1,4-dione]	> 100	–
CC1=C(C(C)n2cc(CSc3ccccc3)nn2)C(=O)c2ccccc2C1=O (centres unmarked) [Compound 10f, 2-methyl-3-(1-(4-((phenylthiol)methyl)-1H-1,2,3-triazolyl)ethyl)naphthalene-1,4-dione]	100 (≈ 257 µM)	–
CC1=C(Cn2cc(C[Se]c3ccccc3)nn2)C(=O)c2ccccc2C1=O [Compound 9a, 2-methyl-3-((4-((phenylselanyl)methyl)-1H-1,2,3-triazolyl)methyl)naphthalene-1,4-dione]	6.23 (≈ 14.8 µM)	MIC [1, 3]: 6.76 µg/mL (≈ 16 µM); cytotoxicity (VERO cell line): minimal cytotoxicity; toxicity at concentrations of up to 100 µg/mL (VERO cell line): non-toxic
CC1=C(Cn2cc(CSc3ccc(Cl)cc3)nn2)C(=O)c2ccccc2C1=O [Compound 10b, 2-((4-(((4-chlorophenyl)thiol)methyl)-1H-1,2,3-triazolyl)methyl)-3-methylnaphthalene-1,4-dione]	> 100	–
CC1=C(C(c2ccccc2)n2cc(C[Se]c3ccccc3)nn2)C(=O)c2ccccc2C1=O (centres unmarked) [Compound 9g, 2-methyl-3-(phenyl(4-((phenylselanyl)methyl)-1H-1,2,3-triazolyl)methyl)naphthalene-1,4-dione]	12.5 (≈ 25.1 µM)	MIC [1, 3]: 3.12 µg/mL (≈ 6.26 µM); cytotoxicity (VERO cell line): minimal cytotoxicity; toxicity at concentrations of up to 100 µg/mL (VERO cell line): non-toxic
CC1=C(Cn2cc(C[Se]c3ccc4ccccc4c3)nn2)C(=O)c2ccccc2C1=O [Compound 9e, 2-methyl-3-((4-((naphthalenylselanyl)methyl)-1H-1,2,3-triazolyl)methyl)naphthalene-1,4-dione]	99.9 (≈ 211 µM)	–
CC1=C(Cn2cc(CSc3ccccc3)nn2)C(=O)c2ccccc2C1=O [Compound 10a, 2-methyl-3-((4-((phenylthiol)methyl)-1H-1,2,3-triazolyl)methyl)naphthalene-1,4-dione]	100 (≈ 267 µM)	–
CC1=C(Cn2cc(C[Se]c3ccc(Cl)cc3)nn2)C(=O)c2ccccc2C1=O [Compound 9b, 2-((4-(((4-chlorophenyl)selanyl)methyl)-1H-1,2,3-triazolyl)methyl)-3-methylnaphthalene-1,4-dione]	3.2 (≈ 7.01 µM)	MIC [1, 3]: 3.2 µg/mL (≈ 7.01 µM); cytotoxicity (VERO cell line): minimal cytotoxicity; toxicity at concentrations of up to 100 µg/mL (VERO cell line): non-toxic
C=CCC1[Se]c2ccccc2C1=O (centres unmarked) [Compound 1]	–	MIC (Mtb; anti-TB activity): 12.5 µg/mL (≈ 52.7 µM)
O=C1NC(c2ccc(OCc3cn(-c4ccc(F)c(F)c4)nn3)cc2)Nc2ccccc21 (centres unmarked) [Compound 5]	–	MIC (Mtb; anti-TB action): 3.12 µg/mL (≈ 7.2 µM)
CC1=C(C(C)n2cc(C[Se]c3ccccc3)nn2)C(=O)c2ccccc2C1=O (centres unmarked) [Compound 9f, 2-methyl-3-(1-(4-((phenylselanyl)methyl)-1H-1,2,3-triazolyl)ethyl)naphthalene-1,4-dione]	6.23 (≈ 14.3 µM)	MIC [1, 3]: > 43.6 µg/mL
NNC(=O)c1ccncc1 [INH, isoniazid, reference compound]	0.12 (≈ 0.875 µM)	–
CC1=C(Cn2cc(C[Se]c3c(C)cc(C)cc3C)nn2)C(=O)c2ccccc2C1=O [Compound 9d, 2-((4-((2,4,6-trimethyl-phenylselanyl)methyl)-1H-1,2,3-triazolyl)methyl)-3-methylnaphthalene-1,4-dione]	> 99.9	–
CC1=C(C(c2ccccc2)n2cc(CSc3ccccc3)nn2)C(=O)c2ccccc2C1=O (centres unmarked) [Compound 10g, 2-methyl-3-(phenyl(4-((phenylthiol)methyl)-1H-1,2,3-triazolyl)methyl)naphthalene-1,4-dione]	> 100	–
CC1=C(C(c2ccc(C)cc2)n2cc(C[Se]c3ccccc3)nn2)C(=O)c2ccccc2C1=O (centres unmarked) [Compound 9h, 2-methyl-3-((4-((phenylselanyl)methyl)-1H-1,2,3-triazolyl)(p-methylphenyl)methyl) naphthalene-1,4-dione]	24.9 (≈ 48.7 µM)	cytotoxicity (VERO cell line): minimal cytotoxicity; toxicity at concentrations of up to 100 µg/mL (VERO cell line): non-toxic
CC1=C(Cn2cc(C[Se]c3cccc(C(F)(F)F)c3)nn2)C(=O)c2ccccc2C1=O [Compound 9c]	≤ 49.9	–
O=C1c2c(O)ccc(O)c2C(=O)c2c(NCCNCCO)ccc(NCCNCCO)c21 [co-crystallized ligand, 1,4-dihydroxy-5,8-bis({2-[(2-hydroxyethyl)amino]ethyl}amino)-9,10-anthracenedione]	–	IC50 (protein kinase B (PknB)): 800 nM
CC1=C(Cn2cc(CSCc3ccco3)nn2)C(=O)c2ccccc2C1=O [Compound 10e, 2-((4-(((furan-2-ylmethyl)thiol)methyl)-1H-1,2,3-triazolyl)methyl)-3-methylnaphthalene-1,4-dione]	> 100	–
CC1=C(Cn2cc(CSc3ccccc3C)nn2)C(=O)c2ccccc2C1=O [Compound 10d, 2-methyl-3-((4-((o-methylphenylthiol)methyl)-1H-1,2,3-triazolyl)methyl)naphthalene-1,4-dione]	> 100	–
O=C1NC(c2ccc(OCc3cn(-c4ccc(F)cc4F)nn3)cc2)Nc2ccccc21 (centres unmarked) [Compound 4]	–	MIC (Mtb; anti-TB action): 0.78 µg/mL (≈ 1.8 µM)
C/C(=N/N=C1/NC(=O)CS1)c1ccc(-c2ccccc2)cc1 [Compound 2]	–	MIC (Mtb; anti-TB activity): 12.5 µg/mL (≈ 40.4 µM)
CC1=C(C(c2ccc(C)cc2)n2cc(CSc3ccccc3)nn2)C(=O)c2ccccc2C1=O (centres unmarked) [Compound 10h, 2-methyl-3-((4-((phenylthiol)methyl)-1H-1,2,3-triazolyl)(p-methylphenyl)methyl)naphthalene-1,4-dione]	> 100	–
